Test results: the NIST ThermoML archive (doi:10.1016/j.fluid.2006.05.014)
± gives the expanded uncertainty stated by the source.

Experiment: xn = mol fraction of the nth substance listed
Settings: Liquid, dividing mass by volume

CCCCCCCC [octane] + O=C=O
Settings | mass density [kg/m3]
313.2 K, x2 = 0.11 | 730 ± 15
313.2 K, x2 = 0.2134 | 729 ± 15
313.2 K, x2 = 0.3377 | 729.3 ± 15
313.2 K, x2 = 0.4342 | 711.9 ± 14
313.2 K, x2 = 0.5534 | 692.7 ± 14
313.2 K, x2 = 0.6752 | 663.5 ± 13
313.2 K, x2 = 0.752 | 644.6 ± 13
313.2 K, x2 = 0.8581 | 585 ± 12
313.2 K, x2 = 0.9447 | 462.3 ± 9.3
333.2 K, x2 = 0.1573 | 683.6 ± 14
333.2 K, x2 = 0.206 | 678.5 ± 14
333.2 K, x2 = 0.2891 | 670.1 ± 13
333.2 K, x2 = 0.3593 | 660.5 ± 13
333.2 K, x2 = 0.4296 | 657.3 ± 13
333.2 K, x2 = 0.4956 | 641.9 ± 13
333.2 K, x2 = 0.5915 | 627.8 ± 13
333.2 K, x2 = 0.7413 | 556.8 ± 11
333.2 K, x2 = 0.8558 | 516.5 ± 10
333.2 K, x2 = 0.9383 | 436.1 ± 8.7
353.2 K, x2 = 0.1452 | 658.6 ± 13
353.2 K, x2 = 0.2452 | 651.5 ± 13
353.2 K, x2 = 0.3596 | 642.5 ± 13
353.2 K, x2 = 0.4373 | 635.4 ± 13
353.2 K, x2 = 0.4948 | 621.3 ± 12
353.2 K, x2 = 0.5783 | 614.8 ± 12
353.2 K, x2 = 0.6237 | 600.1 ± 12
353.2 K, x2 = 0.7761 | 585.8 ± 12
353.2 K, x2 = 0.8255 | 560 ± 11
353.2 K, x2 = 0.9154 | 458.2 ± 9.2
373.2 K, x2 = 0.2172 | 550.7 ± 11
373.2 K, x2 = 0.369 | 565.2 ± 11
373.2 K, x2 = 0.5134 | 584.2 ± 12
373.2 K, x2 = 0.5706 | 592.6 ± 12
373.2 K, x2 = 0.6538 | 591.7 ± 12
373.2 K, x2 = 0.7837 | 565.8 ± 11
373.2 K, x2 = 0.8522 | 516.3 ± 10
373.2 K, x2 = 0.902 | 425.1 ± 8.5
393.2 K, x2 = 0.156 | 510.3 ± 10
393.2 K, x2 = 0.2689 | 525.1 ± 10
393.2 K, x2 = 0.3933 | 531.4 ± 11
393.2 K, x2 = 0.4582 | 537.8 ± 11
393.2 K, x2 = 0.522 | 544.7 ± 11
393.2 K, x2 = 0.5922 | 546.8 ± 11
393.2 K, x2 = 0.6738 | 551.1 ± 11
393.2 K, x2 = 0.7464 | 553.2 ± 11
393.2 K, x2 = 0.8146 | 519.8 ± 10
393.2 K, x2 = 0.8728 | 400.2 ± 8
